From PMC7226045, “Ensartinib (X-396) Effectively Modulates Pharmacokinetic Resistance Mediated by ABCB1 and ABCG2 Drug Efflux Transporters and CYP3A4 Biotransformation Enzyme” (Cancers, 2020) come the findings set out here.

The data set addresses T1, CYP1A2 (Homo sapiens, UniProt P05177).
T1 construct: purchased Thermo Fisher Scientific; host or cells: insect microsomal fractions
The data set is described as follows: Vivid CYP screening kit, recombinant CYP1A2. The data set is classed as biochemical. The settings on record: recombinant enzyme. How it is done: CYP inhibitory assay was performed as described previously. Experiments were performed with commercial Vivid CYP screening kits containing insect microsomal fractions enriched with a specific human CYP isoform, human CYP reductase, and in some cases, human cytochrome b5. The potential inhibitory activity of ensartinib toward CYP1A2, CYP2B6, CYP2C8, CYP2C9, CYP2C19, CYP2D6, CYP3A4, and CYP3A5 (i.e., all CYP isoforms that drug regulatory authorities recommend for testing of inhibition by new molecular entities) was then examined. Experiments were performed using a kinetic mode in black 96-well plates according to the manufacturer´s instructions. Briefly, 5-point serial dilutions of ensartinib or the model inhibitor recommended by the manufacturer in buffer were transferred into the wells, then a master mix consisting of a CYP isoenzyme with an NADPH regeneration system in buffer was added. After a 10 min pre-incubation, the reaction was initiated by adding a mixture of NADP^+ and the appropriate Vivid substrate, after which fluorescence was measured at 1 min intervals for 60 min using an Infinite M200 Pro microplate reader (Tecan, Männedorf, Switzerland). The enzyme concentration and incubation interval used for data evaluation (15 min) placed the systems within the linear regions of the appropriate reaction velocity curves. […]

T1 sequence (P05177 2-516 limits assumed): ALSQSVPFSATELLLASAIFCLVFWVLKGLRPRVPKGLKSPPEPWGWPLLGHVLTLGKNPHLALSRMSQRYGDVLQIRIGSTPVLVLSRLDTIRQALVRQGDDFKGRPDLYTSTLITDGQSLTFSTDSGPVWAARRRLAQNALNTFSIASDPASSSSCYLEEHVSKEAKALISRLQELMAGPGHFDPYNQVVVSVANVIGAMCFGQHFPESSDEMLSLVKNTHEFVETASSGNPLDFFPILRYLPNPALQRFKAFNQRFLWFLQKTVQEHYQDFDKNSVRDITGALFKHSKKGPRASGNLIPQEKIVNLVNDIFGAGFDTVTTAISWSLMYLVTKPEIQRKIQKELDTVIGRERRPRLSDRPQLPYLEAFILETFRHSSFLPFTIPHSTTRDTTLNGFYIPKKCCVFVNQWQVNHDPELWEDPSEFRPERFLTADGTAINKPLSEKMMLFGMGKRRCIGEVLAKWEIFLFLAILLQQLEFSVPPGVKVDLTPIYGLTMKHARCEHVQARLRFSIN

As to `C[C@@H]1CN(C(=O)c2ccc(NC(=O)c3cc(O[C@H](C)c4c(Cl)ccc(F)c4Cl)c(N)nn3)cc2)C[C@H](C)N1` [ensartinib, Ensartinib], the “inhibitory effect on CYP1A2 (in words)” value is reported as “no appreciable inhibitory effect”. For the setting “15 min incubation, absolute IC50, read-out: CYP1A2 inhibition IC50”, the 50% inhibitory concentration (IC50) is over 50 µM.
